Experiments:
[1] = compound: C[C@@H](Oc1cc(-c2cnn(C3CCNCC3)c2)cnc1N)c1c(Cl)ccc(F)c1Cl [Crizotinib]; test: relative viability (nuclei count vs DMSO), 5 days (fraction); higher = more cells survive
Procedure, shortened: (§1)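 Only plates meeting two conditions passed: control CV below 25% and at least one doubling. Lung cancer cell lines, kept overnight at 37 °C in 1536-well plates, were pinned with five library-drug doses (not always all listed) √10 apart on vehicle-anchored plates and grown 5 days without medium change. A one-step fix, permeabilisation and Hoechst stain preceded 4× imaging and MetaXpress nuclear counting. Viability equals treated-well nuclei divided by vehicle-well nuclei, as the median over plates.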

[2] = compound: CC(C)C[C@H](NC(=O)[C@H](CCc1ccccc1)NC(=O)CN1CCOCC1)C(=O)N[C@@H](Cc1ccccc1)C(=O)N[C@@H](CC(C)C)C(=O)[C@@]1(C)CO1 [Carfilzomib]; test: as above
Procedure, shortened: as §1

Row | Cell Line | relative viability ([1]; 0.01 µM) | relative viability ([1]; 0.03162 µM) | relative viability ([1]; 0.1 µM) | relative viability ([1]; 0.3162 µM) | relative viability ([1]; 1 µM) | relative viability ([2]; 0.001 µM) | relative viability ([2]; 0.003162 µM) | relative viability ([2]; 0.01 µM) | relative viability ([2]; 0.03162 µM) | relative viability ([2]; 0.1 µM) | relative viability ([1]; 1 µM, anchor plate)
1 | NCI-H1623 | 0.891 | 1.01 | 0.915 | 0.89 | 0.891 | 0.972 | 1.12 | 1.04 | 0.885 | 0.33 | –
2 | NCI-H1648 | 0.742 | 1.33 | 0.651 | 0.958 | 1.1 | 0.845 | 1.11 | 1.14 | 0.725 | 0.416 | –
3 | NCI-H1650 | 0.842 | 0.993 | 0.969 | 0.891 | 0.931 | 0.986 | 0.975 | 0.341 | 0.141 | 0.186 | 1.02
4 | NCI-H1651 | 0.954 | 0.994 | 0.938 | 0.991 | 1.08 | 0.964 | 1.01 | 0.879 | 0.327 | 0.12 | 0.884
5 | NCI-H1666 | 0.952 | 1.02 | 0.985 | 0.971 | 0.987 | 1.02 | 1.07 | 1.06 | 0.981 | 0.437 | 1.04
6 | NCI-H1703 | 0.794 | 1.08 | 0.918 | 0.968 | 1.14 | 0.839 | 1.22 | 0.439 | 0.132 | 0.128 | 0.728
7 | NCI-H1734 | 0.913 | – | 0.886 | – | 0.955 | 0.972 | 1.04 | 0.904 | 0.354 | 0.124 | 0.672
8 | NCI-H1755 | 0.943 | 0.987 | – | 0.944 | 1 | 1.01 | 1.02 | 1 | 1.01 | 0.788 | 0.863
9 | NCI-H1792 | 0.886 | 1.01 | 1.09 | – | 0.909 | 0.827 | 0.962 | 0.957 | 0.658 | 0.388 | 0.997
10 | NCI-H1915 | – | 0.99 | 1.02 | – | 1.02 | 0.954 | 1.08 | 0.871 | 1 | 0.184 | 0.908
11 | NCI-H1944 | 0.879 | 0.992 | 0.907 | 1.02 | 0.893 | 0.907 | 1.03 | 0.927 | 1 | 0.343 | 1.1
12 | NCI-H1975 | 0.884 | 0.992 | 0.967 | 0.921 | 1.02 | 0.946 | 1.05 | 0.808 | 0.146 | 0.137 | 0.979
13 | NCI-H1993 | 0.859 | 0.978 | 0.807 | 0.798 | 0.753 | 0.943 | 0.999 | 1.01 | 0.818 | 0.426 | 0.872
14 | NCI-H2009 | 0.953 | 1 | 1.05 | 0.986 | 1 | 1.07 | 1.05 | 1.02 | 0.44 | 0.0846 | 1.04
15 | NCI-H2023 | 0.85 | 0.982 | 0.974 | 0.761 | 0.734 | 1.01 | 0.965 | 0.944 | 0.436 | 0.0808 | 0.676
16 | NCI-H2085 | 0.936 | 1.03 | 0.977 | 1 | 0.975 | 1.02 | 1.03 | 0.962 | 0.547 | 0.323 | 0.882

— the supplement of paper PMC10307832
